One may read the pIC50 as the IC50 on a negative log10 scale, so that one unit is a factor of ten.

Molecules are shown by their SMILES. pIC50: −log10 of the molar value.

One series has as its system DOHH-2. Nature of the series: In vitro cytotoxicity, DOHH-2 (B Cell Lymphoma). The series is classed as cell-based. The note with it: Homo sapiens, DOHH-2, 72 h, read-out: Cytotoxicity IC50, DOHH-2. The procedure: (§1) All cells were cultivated in RPMI medium 1640 (IX). All media was supplemented with 10 μg/μl penicillin/streptomycin, 10% heat inactivated FBS, 0.1 mM Sodium Pyruvate, 1×MEM NEAA (ThermoFisher) and 1 mM HEPES. The DERL-2 cells had higher FBS (20%) and 40 ng/mL IL-2 was added. hPBMCs were thawed and allowed to acclimatise overnight and then stimulated with 10 μg/mL PHA-M and 40 ng/mL IL-2 for 4 hours before being exposed to test compounds. All cells, except for hPBMCs, were grown to reach log phase before being exposed to the test compounds.
(§2) Test compounds were dissolved in 100% DMSO and added to a 384 assay plate. Additional DMSO was added to maintain the same final DMSO concentration (0.2%) in all wells. 25 μL cell suspension with a concentration of 100000 cells/mL was added to each well. The cells were cultured in a CO2 incubator at 37° C. for 72 h. Plates were equilibrated to room temperature for 30 minutes before adding 20 μL CellTiter-Glo® 2.0 (Promega) reagent to all wells. The plate was then allowed to stabilize for 20 minutes before recording the luminescence (Em filter 700 nm) in an Envision plate reader.

The next series concerns AMO-1. Nature of the series: In vitro cytotoxicity, AMO-1 (Multiple Myeloma). The series is classed as cell-based. Particulars: Homo sapiens, AMO1, 72 h, read-out: Cytotoxicity IC50, AMO-1. The procedure: as §1, §2
A further series has as its system SUP-T1. Nature of the series: In vitro cytotoxicity, SUP-T1 (T cell Lymphoma). The series is classed as cell-based. Particulars: Homo sapiens, SUP-T1, 72 h, read-out: Cytotoxicity IC50, SUP-T1. The procedure: as §1, §2
In the next series the test system is U266. The series can be described thus: In vitro cytotoxicity, U266 (Multiple Myeloma). The series is classed as cell-based. Particulars: Homo sapiens, U-266, 72 h, read-out: Cytotoxicity IC50, U266. How it is done: as §1, §2
The test system of a further series is RPMI-8226. The series can be described thus: In vitro cytotoxicity, RPMI-8226 (Multiple Myeloma, resistant). The series is classed as cell-based. Particulars: Homo sapiens, RPMI-8226, 72 h, read-out: Cytotoxicity IC50, RPMI-8226. How it is done: as §1, §2
For a further series, the system named is EJM. The series can be described thus: In vitro cytotoxicity, EJM (Multiple Myeloma). It is filed as cell-based. Particulars: Homo sapiens, 72 h, read-out: Cytotoxicity IC50, EJM. The procedure:
as §1, §2

A further series relates to SK-MM-1. The series can be described thus: In vitro cytotoxicity, SK-MM-1 (Plasma Cell Leukemia). The note with it: Homo sapiens, 72 h, read-out: Cytotoxicity IC50, SK-MM-1. The series is classed as cell-based. The procedure:
as §1, §2

The subject of a further series is THP-1. Nature of the series: In vitro cytotoxicity, THP-1 (Acute Myeloid Leukemia). The note with it: Homo sapiens, THP-1, 72 h, read-out: Cytotoxicity IC50, THP-1. It is filed as cell-based. How it is done:
as §1, §2

The test system of series [1] is MM.1S cells. The series can be described thus: Cellular retention/efflux: intracellular and extracellular concentrations by LC-MS/MS. It is filed as in vitro ADME, human. The procedure:
Methods: MMA1S cells at 2×10^6 cells/mL were seeded at 250 μL per well in a 96-well plate. Cells were incubated in the presence of a test compound for 5, 15, and 60 min before pelleting cells by centrifugation at +4° C. for 5 min. Cell media was immediately harvested to a second plate and stored at −80° C. until further analysis. Pelleted cells were washed once with ice cold PBS before storage at −80° C. until further analysis.
Cells were lysed and protein in the media were precipitated using acetonitrile dimethylformamide, 9:1 containing internal standard. Samples were centrifuged and the supernatant was analyzed with LC-MS/MS (ACQUITY UPLC-Xevo TQ-S micro) to determine compound concentration.
Example compound 1, bendamustine and melphalan were used as test compounds.
Method: Method described in Biological example 3.
Example compounds 1, 2, 3, 4, 6, 7 and 10 were investigated. Intracellular metabolites are formed from all compounds tested. The compound used for cell treatment was metabolised to the ester-hydrolysed compound (here called Metabolite A) and to the amide-hydrolysed compound (called Metabolite B). The example compound structures and the structures of the two metabolites for the respective compounds were as shown in Table 4. The Metabolites B formed under the conditions tested were compounds with structure as Examples 17 and 18: […]

Series [2] concerns MM.1S cells. The series can be described thus: DNA fragmentation, APO-BrdU TUNEL assay by flow cytometry. The note with it: 24 h; for Cells with DNA breaks (TUNEL positive cells): 0.6 μM; for Dose response effect on DNA damage (TUNEL): 0.006, 0.06, 0.6 or 6 μM. It is filed as cell-based, human. How it is done: Method: 1×10^6 MM.1S cells (CRL-2974, ATCC) were treated with Example compound 1 or Bendamustine at 0.006, 0.06, 0.6 or 6 μM for 24 h. After incubation, the cells were washed with PBS (10010-015, Gibco), fixed in Flow Cytometry Fixation Buffer (FC004, R&D Systems) for 10 min and stored in 70% ethanol at −20° C. overnight. The deoxythymidine analog (BrdUTP) was present in the experiment and served to label the DNA break sites. Next day, the cells were washed and stained using an APO-BrdU™ TUNEL Assay Kit, according to the manufacturer's protocol (A23210, Invitrogen), followed by the analysis using BD FACSCanto™ II. The percentage of TUNEL positive cells indicates the percentage of cells with fragmented DNA.
(In flow cytometry, cells or beads pass a laser one at a time.)

A further series deals with U937. Nature of the series: In vitro cytotoxicity, U937 (Histiocytic Lymphoma). The series is classed as cell-based. The note with it: Homo sapiens, U-937, 72 h, read-out: Cytotoxicity IC50, U937. The procedure:
as §1, §2

The test system of a further series is KMS-12-BM. The series can be described thus: In vitro cytotoxicity, KMS-12-BM (Multiple Myeloma). It is filed as cell-based. The note with it: Homo sapiens, 72 h, read-out: Cytotoxicity IC50, KMS-12-BM. The procedure:
as §1, §2

Series [3] deals with DNA prepared from MM.1S cells (nuclear HPRT and mitochondrial DNA). Nature of the series: Direct DNA damage, PCR amplification of treated DNA (HPRT and mtDNA primers). It is filed as biochemical, human. Particulars: 0.25 μM compound, 30 minutes, 37° C., 1 μg DNA. In short, it runs like this:
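Genomic DNA isolated from MM.1S cells, 1 μg treated with 0.25 μM compound for 30 min at 37 °C, DMSO as control. Long-range PCR on 20 ng treated DNA yielding 10.4 kb (HPRT) or 8.9 kb (mtDNA) fragments; damage assessed by loss of product on 1% agarose gel.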

Regarding `Cn1c(CCCC(=O)O)nc2cc(N(CCCl)CCCl)ccc21` [Bendamustine, bendamustine, reference compound], the pIC50 in the series with DOHH-2 was 4.97; in the series with AMO-1 it was 4.24; with SUP-T1, 4.47; in the series on U266, 4.08; with RPMI-8226 it was 3.95; in the series with EJM it was 4.19. In addition, the pIC50 in the series on SK-MM-1 is 4.13; in the series on THP-1 it was 4.40; in the series with U937, 4.57; in the series on KMS-12-BM, 4.56. Also, the “Intracellular concentration (in words)” value in the series with MM.1S cells [1] (MM.1S cells incubated with test compound 5, 15, 60 min, metabolites measured after treatment with the parent Example compound) was “Low intracellular concentrations”. In addition, the “Extracellular concentration (in words)” value in the series on MM.1S cells [1] (media of MM.1S cells incubated with test compound 5, 15, 60 min, metabolites measured after treatment with the parent Example compound) is “quite high and decreased overtime”. Besides, in the series on MM.1S cells [2], the “Cells with DNA breaks (TUNEL positive cells)” value is listed as “that was not the case”. In addition, in the series on MM.1S cells [2], the “Dose response effect on DNA damage (TUNEL)” value was “no obvious effect”. Moreover, the “DNA damage on nuclear and mitochondrial DNA (PCR band)” value in series [3] is listed as “no or very minor effect on DNA damage”.
Regarding `CCOC(=O)[C@H](CC(C)C)NC(=O)[C@@H](N)CCc1nc2cc(N(CCCl)CCCl)ccc2n1C` [Example 1, Ethyl (2S)-2-[[(2S)-2-amino-4-[5-[bis(2-chloroethyl)amino]-1-methyl-benzimidazol-2-yl]butanoyl]amino]-4-methyl-pentanoate], the pIC50 in the series on DOHH-2 is 8.38; in the series on AMO-1, 7.30; in the series on SUP-T1 it was 7.90; in the series with U266 it was 7.67; with RPMI-8226, 7.04; in the series on EJM, 7.57. The pIC50 in the series on SK-MM-1 was 7.46; with THP-1, 7.80; with U937, 8.01; in the series on KMS-12-BM, 8.10. In the series on MM.1S cells [1] (MM.1S cells, 5, 15, 60 min), the “Intracellular hydrolysis / formation of metabolites” value is given as “hydrolysis of Example compound 1 took place inside the cells”. For the same compound, the “Cells with DNA breaks (TUNEL positive cells)” value in the series on MM.1S cells [2] was over 90%. Further, in the series on MM.1S cells [2], the “Dose response effect on DNA damage (TUNEL)” value was “induced DNA damage in a dose-dependent manner”. Also, the “DNA damage on nuclear and mitochondrial DNA (PCR band)” value in [3] is listed as “strong DNA damaging effect”.
